Test results from ChEMBL document CHEMBL4483862, “Open-source discovery of chemical leads for next-generation chemoprotective antimalarials” (2018).

System: Plasmodium berghei
Assay: Luciferase/luciferin-expressing antifolate-resistant parasites were used to infect a culture of HepG2 cells that were pre-incubated with compounds. Infected hepatocytes emit light due to the luciferase reaction. Assay results are presented as the percent inhibition of light emission compared to control. […]
Format: functional
Conditions: sporozoite; for IC90: read-out: LUCIFERASE INFECTION ASSAY - IC90
[1] = read-out: LUCIFERASE INFECTION ASSAY - IC50

| SMILES | IC90 [µM] | IC50 [1] [µM] | other results |
| --- | --- | --- | --- |
| CC(=O)c1c(C)[nH]c(C(=O)OCCOc2ccccc2)c1C | > 10 |  | IC50 (PBLUC_HILL_SLOPE 1.04, PBLUC_R_SQUARED 0.638, read-out: LUCIFERASE INFECTION ASSAY - IC50): 1.81 µM |
| Cc1nn(-c2ccccc2)c(C)c1C(=O)ONC(=N)c1ccc(C(C)(C)C)cc1 | 3.03 |  | IC50 (HEPG2TOX_HILL_SLOPE 14.9, HEPG2TOX_R_SQUARED 0.924, PBLUC_HILL_SLOPE 26.9, PBLUC_R_SQUARED 0.601, read-out: LUCIFERASE INFECTION ASSAY - IC50): 2.79 µM |
| CN(C)CCNC(=O)c1cccc(-c2cnc3c(NC=O)cc(-c4cccc(C(F)(F)F)c4)cn23)c1 | > 6.66 | > 6.66 |  |
| Fc1ccc(Cc2ccc3ncc(-c4ccncc4)n3n2)cc1 | 9.84 |  | IC50 (HEPG2TOX_HILL_SLOPE 3.58, HEPG2TOX_R_SQUARED 0.787, PBLUC_HILL_SLOPE 13.1, PBLUC_R_SQUARED 0.419, read-out: LUCIFERASE INFECTION ASSAY - IC50): 8.32 µM |
| Cc1c(C(=O)NC2CC2)sc(=O)n1Cc1ccc(-c2ccccc2)cc1 | 8.88 | 1.9 |  |
| O=C1N/C(=N\C2CCCC2)S/C1=C\c1ccc2c(c1)OCCO2 | 7.77 |  | IC50 (HEPG2TOX_HILL_SLOPE 6.25, HEPG2TOX_R_SQUARED 0.845, PBLUC_HILL_SLOPE 2.64, PBLUC_R_SQUARED 0.759, read-out: LUCIFERASE INFECTION ASSAY - IC50): 3.38 µM |
| Fc1ccc(NC(=S)N2CCN(c3ncnc4sccc34)CC2)c(F)c1 | 2.97 |  | IC50 (HEPG2TOX_HILL_SLOPE 0.955, HEPG2TOX_R_SQUARED 0.941, PBLUC_HILL_SLOPE 17.3, PBLUC_R_SQUARED 0.219, read-out: LUCIFERASE INFECTION ASSAY - IC50): 2.62 µM |
| N#Cc1ccc(OCC(=O)c2ccc(OC(F)F)cc2OC(F)F)cc1 | > 10 | > 10 |  |
| CCCNC(=O)c1c(NC(=O)c2ccc(C(F)(F)F)cc2)nc2ccccn12 | 0.441 |  | IC50 (FFLUC_HILL_SLOPE 16.1, FFLUC_R_SQUARED 0.832, HEPG2TOX_HILL_SLOPE 0.765, HEPG2TOX_R_SQUARED 0.858, PBLUC_HILL_SLOPE 8.91, PBLUC_R_SQUARED 0.524, read-out: LUCIFERASE INFECTION ASSAY - IC50): 0.344 µM |
| CC(C)(C)c1cc(C(=O)Nc2nc(C(N)c3ccccc3Cl)cs2)n(Cc2ccccc2)n1 (configuration not stated) | 6.37 |  | IC50 (PBLUC_HILL_SLOPE 22.9, PBLUC_R_SQUARED 0.71, read-out: LUCIFERASE INFECTION ASSAY - IC50): 5.79 µM |
| Cc1cc(-c2cn3c(-c4ccc(CO)cc4)cnc3cn2)cc(C)c1O | 4.31 |  | IC50 (HEPG2TOX_HILL_SLOPE 1.62, HEPG2TOX_R_SQUARED 0.965, PBLUC_HILL_SLOPE 8.31, PBLUC_R_SQUARED 0.637, read-out: LUCIFERASE INFECTION ASSAY - IC50): 3.31 µM |
| Cn1cc(/C=C/C(=O)c2ccc(-c3ccc(F)cc3)s2)cn1 | > 10 | > 10 |  |
| CCn1c(SCC(=O)NC(=O)NCc2cccs2)nnc1C1CC1 | > 10 | > 10 |  |
| CC(C)=CC(=O)Nc1scc(-c2ccccc2)c1C(=O)OCc1nnc(-c2cccs2)o1 | > 10 |  | IC50 (FFLUC_HILL_SLOPE 8.85, FFLUC_R_SQUARED 0.514, PBLUC_HILL_SLOPE 2.24, PBLUC_R_SQUARED 0.566, read-out: LUCIFERASE INFECTION ASSAY - IC50): 5.03 µM |
| CN(C)c1cccc(-c2ccc3nnc(-c4ccc5c(c4)OCO5)n3c2)c1 | 5.11 |  | IC50 (HEPG2TOX_HILL_SLOPE 1.77, HEPG2TOX_R_SQUARED 0.976, PBLUC_HILL_SLOPE 2.39, PBLUC_R_SQUARED 0.666, read-out: LUCIFERASE INFECTION ASSAY - IC50): 2.04 µM |
| CCN(c1ccc(NC(=O)c2ccc3c(c2)NC(=O)CS3)cc1)C(C)C | 3.68 |  | IC50 (HEPG2TOX_HILL_SLOPE 14.6, HEPG2TOX_R_SQUARED 0.71, PBLUC_HILL_SLOPE 18.6, PBLUC_R_SQUARED 0.967, read-out: LUCIFERASE INFECTION ASSAY - IC50): 3.27 µM |
| NCCCNc1ccnc2cc(Cl)ccc12 | > 14 |  | IC50 (PBLUC_HILL_SLOPE 2.91, PBLUC_R_SQUARED 0.438, read-out: LUCIFERASE INFECTION ASSAY - IC50): 8.74 µM |
| Nc1c(C(=O)Nc2cccc(Cl)c2)sc2nc3c(c(-c4cccnc4)c12)CCC3 | > 7.84 |  | IC50 (FFLUC_HILL_SLOPE 1.24, FFLUC_R_SQUARED 0.605, PBLUC_HILL_SLOPE 2.61, PBLUC_R_SQUARED 0.023, read-out: LUCIFERASE INFECTION ASSAY - IC50): > 7.84 µM |
| CCOc1ccc(-n2c(SCC(=O)N(C)Cc3ccccc3)nc3ccccc32)cc1 | > 10 | > 10 |  |
| COc1ccc(C(N)c2csc(NC(=O)NC(c3ccccc3)c3ccccc3)n2)cc1 (configuration not stated) | 3.36 |  | IC50 (PBLUC_HILL_SLOPE 167, PBLUC_R_SQUARED 0.12, read-out: LUCIFERASE INFECTION ASSAY - IC50): 3.31 µM |
| NC(Cc1ccc(F)cc1)c1csc(NC(=O)Nc2ccccc2Oc2ccccc2)n1 (configuration not stated) | > 7.36 | > 7.36 |  |

| SMILES | IC90 [µM] | IC50 [1] [µM] | other results |
| --- | --- | --- | --- |
| O=C(/C(=C/c1ccc(F)cc1)c1ccc(-c2ccccc2)cc1)N1CCN(c2ccccc2Cl)CC1 | > 10 |  | IC50 (FFLUC_HILL_SLOPE 11.6, FFLUC_R_SQUARED 0.516, HEPG2TOX_HILL_SLOPE 7.73, HEPG2TOX_R_SQUARED 0.736, read-out: LUCIFERASE INFECTION ASSAY - IC50): > 10 µM |
| Cc1csc(Sc2ncnc3c2cnn3C)n1 | > 2 | > 2 |  |
| CC(C)c1cc(C(=O)Nc2nnc3ccccn23)c2cnn(C(C)C)c2n1 | 4.31 |  | IC50 (HEPG2TOX_HILL_SLOPE 0.96, HEPG2TOX_R_SQUARED 0.828, PBLUC_HILL_SLOPE 9.22, PBLUC_R_SQUARED 0.235, read-out: LUCIFERASE INFECTION ASSAY - IC50): 3.4 µM |
| COc1ccc(OCCN(C)C(=O)c2ccc(-n3cccn3)cc2)cc1 | > 10 | > 10 |  |
| Cc1oc2c(c1C(=O)NCC1CCCO1)C(=O)c1ccccc1C2=O (configuration not stated) | 0.328 |  | IC50 (HEPG2TOX_HILL_SLOPE 84.1, HEPG2TOX_R_SQUARED 0.355, PBLUC_HILL_SLOPE 3.6, PBLUC_R_SQUARED 0.607, read-out: LUCIFERASE INFECTION ASSAY - IC50): 0.178 µM |
| Cc1cc(O)c(C(=O)/C=C/c2cn(-c3ccccc3C)nc2-c2ccccc2)c(=O)o1 | > 10 |  | IC50 (FFLUC_HILL_SLOPE 4.53, FFLUC_R_SQUARED 0.503, PBLUC_HILL_SLOPE 0.894, PBLUC_R_SQUARED 0.655, read-out: LUCIFERASE INFECTION ASSAY - IC50): 6.09 µM |
| Cc1nnc(Sc2ncc([N+](=O)[O-])s2)n1-c1ccc(OCc2ccccc2)cc1 | > 7.76 | > 7.76 |  |
| COc1ccc(C2C(C(=O)OCc3cccc4ccccc34)CCC(=O)N2c2ccc(C)cc2)cc1OC (configuration not stated) | > 10 |  | IC50 (HEPG2TOX_HILL_SLOPE 2.17, HEPG2TOX_R_SQUARED 0.745, PBLUC_HILL_SLOPE 19.2, PBLUC_R_SQUARED 0.577, read-out: LUCIFERASE INFECTION ASSAY - IC50): 9.58 µM |
| CC(Sc1nncs1)C(=O)Nc1cc([N+](=O)[O-])ccc1Cl (configuration not stated) | > 10 | > 10 |  |
| Cc1ccc(NC(=O)Cc2csc(NC(=O)C3CC3)n2)cc1Cl | > 10 |  | IC50 (FFLUC_HILL_SLOPE 0.917, FFLUC_R_SQUARED 0.0768, HEPG2TOX_HILL_SLOPE 0.677, HEPG2TOX_R_SQUARED 0.444, PBLUC_HILL_SLOPE 1.82, PBLUC_R_SQUARED 0.301, read-out: LUCIFERASE INFECTION ASSAY - IC50): > 10 µM |
| CCc1ccc2nc(Nc3nc(=O)cc(-c4cccc(OC)c4)[nH]3)nc(C)c2c1 | > 8.52 |  | IC50 (HEPG2TOX_HILL_SLOPE 12.4, HEPG2TOX_R_SQUARED 0.848, PBLUC_HILL_SLOPE 2.25, PBLUC_R_SQUARED 0.429, read-out: LUCIFERASE INFECTION ASSAY - IC50): 5.68 µM |
| Cc1[nH]c(=O)[nH]c(=O)c1C(=O)/C=C/c1cn(-c2ccccc2)nc1-c1cc2ccccc2o1 | > 10 | > 10 |  |
| FC(F)(F)c1cccc(-c2cc3c(Nc4ccc5c(c4)OCCO5)nccc3[nH]2)c1 | 5.7 |  | IC50 (HEPG2TOX_HILL_SLOPE 20.2, HEPG2TOX_R_SQUARED 0.64, PBLUC_HILL_SLOPE 4.68, PBLUC_R_SQUARED 0.558, read-out: LUCIFERASE INFECTION ASSAY - IC50): 3.56 µM |
| Fc1ccc(-c2ccc3ncc(-c4cccnc4)n3n2)cc1 | > 3.33 |  | IC50 (HEPG2TOX_HILL_SLOPE 0.173, HEPG2TOX_R_SQUARED 0.325, read-out: LUCIFERASE INFECTION ASSAY - IC50): > 3.33 µM |
| CCOC(=O)c1c(S(=O)(=O)Nc2ccc([N+](=O)[O-])cc2)c(-c2ccccc2)n(-c2ccccc2)c1C | > 6.53 |  | IC50 (HEPG2TOX_HILL_SLOPE 0.2, HEPG2TOX_R_SQUARED 0.0818, PBLUC_HILL_SLOPE 2.97, PBLUC_R_SQUARED 0.542, read-out: LUCIFERASE INFECTION ASSAY - IC50): > 6.53 µM |
| CSC1=CC(=O)CC(C)(C)S1 | > 17.5 | > 17.5 |  |
| N#Cc1c(SCC(=O)c2ccccc2)nc2c(c1-c1ccccc1)CCCC2 | 6.39 |  | IC50 (HEPG2TOX_HILL_SLOPE 0.131, HEPG2TOX_R_SQUARED 0.0459, PBLUC_HILL_SLOPE 1.72, PBLUC_R_SQUARED 0.594, read-out: LUCIFERASE INFECTION ASSAY - IC50): 1.78 µM |
| Cc1cc(C)nc(Nc2nc(C(N)Cc3ccc(C(F)(F)F)cc3)cs2)n1 (configuration not stated) | > 8.39 | > 8.39 |  |
| c1nc(NCC2(N3CCOCC3)CCCCC2)c2ccsc2n1 | > 10 | > 10 |  |
| O=S(=O)(C1=Cc2ccccc2CC1)N1CCOC2CCCCC21 (configuration not stated) | > 10 | > 10 |  |
